According to US12685312B2, “Sulfonamide apyrase inhibitors” (Texas Crop Science, Inc., priority 2022, dated 2026):

Tested on: apyrase
Test: Screen for apyrase inhibitors (Method 1, in vitro phosphate-release absorbance assay)
Format: biochemical
Conditions: inhibitor conc at 1 mM stock, 1 hr room temperature, absorbance 630 nm; rounded average of two assay results
Procedure, shortened: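 Phosphate-release colorimetric assay (Windsor method) in 60 mM Hepes, 3 mM MgCl2, 3 mM CaCl2, 3 mM ATP, pH 6.5, with compound or DMSO control added. Released phosphate developed with ammonium molybdate and ascorbic acid/TCA, then stopped with citrate/acetic acid.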

Point of comparison: `CN(c1ccccc1)S(=O)(=O)c1cccc(NC(=O)c2cncc(Br)c2)c1` [I-720, 5-bromo-N-(3-(N-methyl-N-phenylsulfamoyl)phenyl)nicotinamide], “% Inhibition of Apyrase” value 58%. Against it:
- CN(C)S(=O)(=O)c1cccc(NC(=O)c2cccc(S(=O)(=O)N3CCc4ccccc43)c2)c1 [I-550, N-(3-(N,N-dimethylsulfamoyl)phenyl)-3-(indolin-1-ylsulfonyl)benzamide] — lower, 53%
- COc1ccc(NC(=O)c2ccc(NS(=O)(=O)c3ccc(Cl)cc3F)cc2)cc1 [I-956, 4-((4-chloro-2-fluorophenyl)sulfonamido)-N-(4-methoxyphenyl)benzamide] — lower, 22%
- COc1ccc([N+](=O)[O-])cc1S(=O)(=O)Nc1ccccc1NC(=O)c1ccc(C(C)(C)C)cc1 [I-831, 4-(tert-butyl)-N-(2-((2-methoxy-5-nitrophenyl)sulfonamido)phenyl)benzamide] — higher, 59%
- Cc1ccc([N+](=O)[O-])cc1NC(=O)c1cc(S(=O)(=O)Nc2ccc(Br)cc2)c(Cl)cc1Cl [I-49, 5-(N-(4-bromophenyl)sulfamoyl)-2,4-dichloro-N-(2-methyl-5-nitrophenyl)benzamide] — lower, 11%
- Cc1cccc(NC(=O)c2cccc(NS(=O)(=O)c3ccc(Cl)cc3)c2)c1 [I-7, 3-((4-chlorophenyl)sulfonamido)-N-(m-tolyl)benzamide] — higher, 67%
- CN(c1ccccc1)S(=O)(=O)c1ccccc1C(=O)Nc1ccc2c(c1)OCO2 [I-809, N-(benzo[d][1,3]dioxol-5-yl)-2-(N-methyl-N-phenylsulfamoyl)benzamide] — higher, 77%
- COc1ccc(S(=O)(=O)N2CCc3ccccc32)cc1C(=O)Nc1cccc(C)c1 [I-499, 5-(indolin-1-ylsulfonyl)-2-methoxy-N-(m-tolyl)benzamide] — lower, 57%
- Cc1cccc(C(=O)Nc2cccc(NS(=O)(=O)c3ccccc3)c2)c1[N+](=O)[O-] [I-345, 3-methyl-2-nitro-N-(3-(phenylsulfonamido)phenyl)benzamide] — lower, 53%
- O=C(Nc1ccc(S(=O)(=O)Nc2cccc(C(F)(F)F)c2)cc1)c1cc([N+](=O)[O-])cc([N+](=O)[O-])c1 [I-975, 3,5-dinitro-N-(4-(N-(3-(trifluoromethyl)phenyl)sulfamoyl)phenyl) benzamide] — higher, 62%
- O=C(Nc1ccc(Br)cc1F)c1cccc(S(=O)(=O)N2CCc3ccccc32)c1 [I-470, N-(4-bromo-2-fluorophenyl)-3-(indolin-1-ylsulfonyl)benzamide] — higher, 59%
- O=C(Nc1ccc(F)cc1)c1ccccc1NS(=O)(=O)c1cccc(C(F)(F)F)c1 [I-374, N-(4-fluorophenyl)-2-((3-(trifluoromethyl)phenyl)sulfonamido) benzamide] — lower, 48%
- O=C(Nc1cccc(S(=O)(=O)Nc2ccccc2Cl)c1)c1cnccn1 [I-752, N-(3-(N-(2-chlorophenyl)sulfamoyl)phenyl)pyrazine-2-carboxamide] — lower, 40%
- COc1ncccc1C(=O)Nc1cccc(S(=O)(=O)Nc2ccc(Cl)cc2)c1 [I-733, N-(3-(N-(4-chlorophenyl)sulfamoyl)phenyl)-2-methoxynicotinamide] — lower, 54%
- Cc1ccc(S(=O)(=O)Nc2ccc(F)cc2)cc1C(=O)N1CCc2ccccc21 [I-543, N-(4-fluorophenyl)-3-(indoline-1-carbonyl)-4-methylbenzenesulfonamide] — lower, 54%
- O=C(Nc1cccc(S(=O)(=O)Nc2ccccc2Cl)c1)c1ccc([N+](=O)[O-])s1 [I-730, N-(3-(N-(2-chlorophenyl)sulfamoyl)phenyl)-5-nitrothiophene-2-carboxamide] — lower, 55%
- Cc1cc(C(=O)Nc2cccc(S(=O)(=O)N(C)c3ccccc3)c2)on1 [I-748, 3-methyl-N-(3-(N-methyl-N-phenylsulfamoyl)phenyl)isoxazole-5-carboxamide] — lower, 42%
- CC1Cc2ccccc2N1S(=O)(=O)c1cccc(C(=O)Nc2ccc3c(c2)OCO3)c1 (stereo not shown) [I-522, N-(benzo[d][1,3]dioxol-5-yl)-3-((2-methylindolin-1-yl)sulfonyl)benzamide] — lower, 55%
- O=C(Nc1ccc(S(=O)(=O)N2CCc3ccccc32)cc1)c1cccc([N+](=O)[O-])c1 [I-980, N-(4-(indolin-1-ylsulfonyl)phenyl)-3-nitrobenzamide] — the same, 58%
- CC1Cc2ccccc2N1C(=O)c1cccc(S(=O)(=O)N(C)c2cccc(Cl)c2)c1 (stereo not shown) [I-464, N-(3-chlorophenyl)-N-methyl-3-(2-methylindoline-1-carbonyl)benzenesulfonamide] — higher, 59%
- COc1ccc(S(=O)(=O)N2CCc3ccccc32)cc1C(=O)Nc1ccccc1C [I-436, 5-(indolin-1-ylsulfonyl)-2-methoxy-N-(o-tolyl)benzamide] — higher, 64%
- O=C(Nc1ccccc1OC(F)F)c1ccc(Cl)c(S(=O)(=O)N2CCc3ccccc32)c1 [I-463, 4-chloro-N-(2-(difluoromethoxy)phenyl)-3-(indolin-1-ylsulfonyl)benzamide] — higher, 59%
- N#Cc1cccc(NC(=O)c2ccc(S(=O)(=O)Nc3ccccc3F)cc2)c1 [I-406, N-(3-cyanophenyl)-4-(N-(2-fluorophenyl)sulfamoyl)benzamide] — lower, 30%
- O=C(Nc1ccc(S(=O)(=O)Nc2cccc(Cl)c2)cc1)c1ccc(F)cc1 [I-990, N-(4-(N-(3-chlorophenyl)sulfamoyl)phenyl)-4-fluorobenzamide] — lower, 53%
- O=C(Nc1ccc(OC(F)F)cc1)c1ccccc1S(=O)(=O)Nc1cccc(C(F)(F)F)c1 [I-224, N-(4-(difluoromethoxy)phenyl)-2-(N-(3-(trifluoromethyl)phenyl)sulfamoyl)benzamide] — higher, 67%
- CC(=O)Nc1ccc(NC(=O)c2cccc(S(=O)(=O)Nc3ccc(Br)cc3)c2)cc1 [I-47, N-(4-acetamidophenyl)-3-(N-(4-bromophenyl)sulfamoyl)benzamide] — lower, 12%
- COc1ccc(OC)c(NC(=O)c2cccc(S(=O)(=O)N3c4ccccc4CC3C)c2)c1 (stereo not shown) [I-429, N-(2,5-dimethoxyphenyl)-3-((2-methylindolin-1-yl)sulfonyl)benzamide] — higher, 73%
- COc1ccc(NC(=O)c2cccc(S(=O)(=O)Nc3ccc4c(c3)OCO4)c2)c(OC)c1 [I-590, 3-(N-(benzo[d][1,3]dioxol-5-yl)sulfamoyl)-N-(2,4-dimethoxyphenyl)benzamide] — lower, 42%
- COc1ccc([N+](=O)[O-])cc1NC(=O)c1cccc(S(=O)(=O)Nc2cc(C(F)(F)F)ccc2Cl)c1 [I-251, 3-(N-(2-chloro-5-(trifluoromethyl)phenyl)sulfamoyl)-N-(2-methoxy-5-nitrophenyl)benzamide] — higher, 62%
- O=C(Nc1ccc(Cl)cc1)c1cccc(S(=O)(=O)N2CCc3ccccc32)c1 [I-503, N-(4-chlorophenyl)-3-(indolin-1-ylsulfonyl)benzamide] — lower, 57%
- O=C(Nc1cc(Cl)ccc1NS(=O)(=O)c1ccccc1F)c1ccccc1 [I-845, N-(5-chloro-2-((2-fluorophenyl)sulfonamido)phenyl)benzamide] — lower, 1%
- O=C(Nc1cccc(S(=O)(=O)N2CCCC2)c1)c1ccccc1NS(=O)(=O)c1cccc(C(F)(F)F)c1 [I-180, N-(3-(pyrrolidin-1-ylsulfonyl)phenyl)-2-((3-(trifluoromethyl)phenyl)sulfonamido) benzamide] — higher, 75%
- Cc1cccc(NC(=O)c2cccc(S(=O)(=O)N3CCc4ccccc43)c2)c1 [I-214, 3-(indolin-1-ylsulfonyl)-N-(m-tolyl)benzamide] — higher, 71%
- Cc1cccc(NS(=O)(=O)c2cccc(C(=O)Nc3ccc(Br)c(C)c3)c2)c1 [I-491, N-(4-bromo-3-methylphenyl)-3-(N-(m-tolyl)sulfamoyl)benzamide] — the same, 58%
- CCOc1ccc(NC(=O)c2ccc(NS(=O)(=O)c3ccccc3)cc2)cc1 [I-914, N-(4-ethoxyphenyl)-4-(phenylsulfonamido)benzamide] — higher, 59%
- O=C(Nc1ccc2[nH]c(=O)[nH]c2c1)c1cccc(S(=O)(=O)N2CCc3ccccc32)c1 [I-598, 3-(indolin-1-ylsulfonyl)-N-(2-oxo-2,3-dihydro-1H-benzo[d]imidazol-5-yl)benzamide] — lower, 31%
- Cc1ccc(NS(=O)(=O)c2ccc(C(=O)N3CC4CCCN4Cc4ccccc43)cc2)cc1 (stereo not shown) [I-891, 4-(2,3,5,10,11,11a-hexahydro-1H-benzo[e]pyrrolo[1,2-a][1,4]diazepine-10-carbonyl)-N-(p-tolyl)benzenesulfonamide] — lower, 30%
- Cc1cccc(C(=O)Nc2cccc(S(=O)(=O)Nc3cccc(C(F)(F)F)c3)c2)n1 [I-708, 6-methyl-N-(3-(N-(3-(trifluoromethyl)phenyl)sulfamoyl)phenyl) picolinamide] — higher, 61%
- COc1cc(C)c(NC(=O)c2cccc(S(=O)(=O)N3CCc4ccccc43)c2)cc1OC [I-605, N-(4,5-dimethoxy-2-methylphenyl)-3-(indolin-1-ylsulfonyl)benzamide] — lower, 23%
- COc1ccc(S(=O)(=O)N2CCc3ccccc32)cc1C(=O)Nc1ccc2c(c1)OCO2 [I-511, N-(benzo[d][1,3]dioxol-5-yl)-5-(indolin-1-ylsulfonyl)-2-methoxybenzamide] — lower, 56%
